Test results as given in patent EP4603105A1, “PHARMACEUTICAL COMPOSITION CONTAINING CYCLIC COMPOUND HAVING SELECTIVE KRAS INHIBITORY EFFECT AGAINST HRAS AND NRAS” (CHUGAI SEIYAKU KABUSHIKI KAISHA, priority 2022, dated 2024).
*1 amine or outer side, *2 acyl side, *3 side chain or, on linkers, in order; H or OH if unused. Where a SMILES comes first, the peptide text is derived from it. Bridges are numbered along the chain shown (N, C = ends). [ ]: non-standard residue; d: D form. The star is where a group is joined. hPhe(3-Cl-4-CF3) = N[C@@H](CCc1ccc(C(F)(F)F)c(Cl)c1)C(=O)O; X33 = O=C([C@H](Cc1ccc(C(F)(F)F)cc1)N(CC1CC1)[*:1])[*:2]; NPrPhe(4-CF3) = CCCN[C@@H](Cc1ccc(C(F)(F)F)cc1)C(=O)O; NMeGly(cPent) = CN[C@H](C(=O)O)C1CCCC1; Hyp = O=C(O)[C@@H]1C[C@@H](O)CN1; NEtLeu = CCN[C@@H](CC(C)C)C(=O)O; NMeD = CN[C@@H](CC(=O)O)C(=O)O; NMeL = CN[C@@H](CC(C)C)C(=O)O; Morpholide = C1CN(*)CCO1; Ac5c = NC1(C(=O)O)CCCC1; Aze = O=C(O)[C@@H]1CCN1; Ac4c = NC1(C(=O)O)CCC1; Sar = CNCC(=O)O

How the values were obtained:
[1] = molecular target: GDP-bound NRAS wild-type protein (Homo sapiens, UniProt P01111); test: Binding to NRAS by surface plasmon resonance (SPR), KD and KD ratio to KRAS
Sequence of GDP-bound NRAS wild-type protein (P01111 whole entry): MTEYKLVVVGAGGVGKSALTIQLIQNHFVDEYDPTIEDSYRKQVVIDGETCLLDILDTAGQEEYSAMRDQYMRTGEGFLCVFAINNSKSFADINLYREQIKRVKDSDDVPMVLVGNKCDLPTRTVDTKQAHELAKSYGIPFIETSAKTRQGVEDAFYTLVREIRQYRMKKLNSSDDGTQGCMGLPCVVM
Outline: (§1)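 Running buffer contained 10 µM GDP and 10 mM MgCl2 to keep RAS in the GDP state, with 4% DMSO at pH 7.4. Compounds were flowed at 100 µL/min in 75 s steps of rising concentration over captured biotin-Avi RAS at 30°C. Sensorgrams were fitted 1:1 for KD.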

HRAS wild-type protein = HRAS wild-type protein (Homo sapiens, UniProt P01112); test: Binding to HRAS by surface plasmon resonance (SPR), KD and KD ratio to KRAS
Sequence of HRAS wild-type protein (P01112 whole entry): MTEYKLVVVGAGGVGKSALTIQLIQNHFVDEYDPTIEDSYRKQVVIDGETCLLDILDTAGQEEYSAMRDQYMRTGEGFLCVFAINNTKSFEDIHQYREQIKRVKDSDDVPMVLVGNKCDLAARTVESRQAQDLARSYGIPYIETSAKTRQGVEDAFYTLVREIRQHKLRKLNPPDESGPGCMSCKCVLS
Outline: as §1

[2] = test system: human lung cancer strain NCI-H441; assay type: cell-based
Outline: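 Step one: dispense the test compound in serial DMSO dilutions. Step three: add the reagent and measure […].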

[3] = ratio of the KD value with respect to GDP-bound NRAS wild-type protein to the KD value with respect to KRAS
[4] = ratio of the KD value with respect to HRAS wild-type protein to the KD value with respect to KRAS
[5] = ratio of KD for GDP-bound NRAS wild-type protein to KD for KRAS
[6] = ratio of KD for HRAS wild-type protein to KD for KRAS
[7] = ratio of KD value for GDP-bound NRAS wild-type protein to KD value for KRAS (SPR)
[8] = ratio of KD value for HRAS wild-type protein to KD value for KRAS (SPR)

Structure (SMILES) | IC50 [2] | NRAS /KRAS [1, 5] | HRAS /KRAS (HRAS wild-type protein; [6]) | other results
CC[C@H](C)[C@@H]1NC(=O)[C@H](CC(C)C)N(C)C(=O)C[C@@H](C(=O)N(C)C)N(C)C(=O)[C@H](C2CCCC2)N(C)C(=O)C2(CCCC2)NC(=O)[C@@H]2CCCN2C(=O)[C@H](CCc2cc(F)c(C(F)(F)F)c(F)c2)NC(=O)CN(C)C(=O)[C@H](Cc2ccc(C(F)(F)F)cc2)N2CCCCC[C@@H](C2=O)N(C)C(=O)CN(C)C1=O [PP0507] | 62.1 nM | – | – | NRAS /KRAS [1, 3]: B (a compound having 3 or more and less than 10 is denoted as B); HRAS /KRAS (HRAS wild-type protein; [4]): B (a compound having 3 or more and less than 10 is denoted as B)
CCO[C@@H]1C[C@H]2C(=O)NC3(CC=CC3)C(=O)N(C)[C@@H](C3CCCC3)C(=O)N(C)[C@H](C(=O)N3CCOCC3)CC(=O)N(C)[C@@H](COC)C(=O)N[C@@H]([C@@H](C)CC)C(=O)N(C)CC(=O)N(C)[C@H]3CCCCCN(C3=O)[C@@H](Cc3ccc(C(F)(F)F)cc3)C(=O)N(C)CC(=O)N[C@@H](CCc3cc(F)c(C(F)(F)F)c(F)c3)C(=O)N2C1 [PP0842] | 174 nM | B (a compound having 3 or more and less than 10 is denoted as B) | B (a compound having 3 or more and less than 10 is denoted as B) | –
CCC[C@H]1C(=O)N[C@@H]([C@@H](C)CC)C(=O)N(C2CC2)CC(=O)N(C)[C@H]2C/C=C\CCN(C2=O)[C@@H](Cc2ccc(C)cc2)C(=O)N(C)CC(=O)N[C@@H](CCc2ccc(C3CC3)c(Cl)c2)C(=O)N2C[C@H](OCC)C[C@H]2C(=O)NC2(CC(C)(C)C2)C(=O)N(C)[C@@H](C2CCCC2)C(=O)N(C)[C@H](C(=O)N(C)C)CC(=O)N1C [PP2885] | 80.6 nM | A (a compound having 10 or more and less than 20 is denoted as A) | A (a compound having 10 or more and less than 20 is denoted as A) | –
CCO[C@@H]1C[C@H]2C(=O)NC3(CCC3)C(=O)N(C)[C@@H](C3CCCC3)C(=O)N(C)[C@H](C(=O)N(C)C)CC(=O)N(C)[C@@H](CC)C(=O)N[C@@H]([C@@H](C)CC)C(=O)N3CC[C@H]3C(=O)N(C)[C@H]3C/C=C\CCN(C3=O)[C@@H](Cc3ccc(C(F)(F)F)cc3)C(=O)N(C)CC(=O)N[C@@H](CCc3cc(F)c(C(F)(F)F)c(F)c3)C(=O)N2C1 [PP0984] | 64.6 nM | A (a compound having 10 or more and less than 20 is denoted as A) | A (a compound having 10 or more and less than 20 is denoted as A) | –
CC[C@H](C)[C@@H]1NC(=O)[C@H](CC(C)C)N(C)C(=O)C[C@@H](C(=O)N2CCOCC2)N(C)C(=O)[C@H](C2CCCC2)N(C)C(=O)C2(CCCC2)NC(=O)[C@@H]2CCCN2C(=O)[C@H](CCc2ccc(C(F)(F)F)c(Cl)c2)NC(=O)CN(C)C(=O)[C@H](Cc2ccc(C(F)(F)F)cc2)N(CC2CC2)C(=O)CN(C)C(=O)CN(C)C1=O [PP0122] ([NMeL]I[Sar][Sar][X33][Sar][hPhe(3-Cl-4-CF3)]P[Ac5c][NMeGly(cPent)][NMeD]-Morpholide; lactam N-11) | 12 nM | C (A compound having a KD ratio of 0.1 or more and less than 3 is denoted as C) | C (A compound having a KD ratio of 0.1 or more and less than 3 is denoted as C) | –
CCCN1C(=O)[C@@H]2CCN2C(=O)CN(C)C(=O)[C@H]([C@@H](C)CC)NC(=O)[C@H](CC(C)C)N(C)C(=O)C[C@@H](C(=O)N2CCOCC2)NC(=O)[C@H](C2CCCC2)N(C)C(=O)C2(CCCC2)NC(=O)[C@@H]2C[C@@H](OCC)CN2C(=O)[C@H](CCc2ccc(C(F)(F)F)c(Cl)c2)NC(=O)CN(C)C(=O)[C@@H]1Cc1ccc(C(F)(F)F)cc1 [PP0353] ([NMeL]I[Sar][Aze][NPrPhe(4-CF3)][Sar][hPhe(3-Cl-4-CF3)][Hyp](Et)[Ac5c][NMeGly(cPent)]D-Morpholide; lactam N-11) | 46.7 nM | C (A compound having a KD ratio of 0.1 or more and less than 3 is denoted as C) | B (a compound having 3 or more and less than 10 is denoted as B) | –
CCCN1C(=O)CN(C)C(=O)CN(C)C(=O)[C@H]([C@@H](C)CC)NC(=O)[C@H](CC(C)C)N(CC)C(=O)C[C@@H](C(=O)N2CCOCC2)N(C)C(=O)[C@H](C2CCCC2)N(C)C(=O)C2(CCC2)NC(=O)[C@@H]2CCCN2C(=O)[C@H](CCc2ccc(C(F)(F)F)c(Cl)c2)NC(=O)CN(C)C(=O)[C@@H]1Cc1ccc(C(F)(F)F)cc1 [PP1946] ([NEtLeu]I[Sar][Sar][NPrPhe(4-CF3)][Sar][hPhe(3-Cl-4-CF3)]P[Ac4c][NMeGly(cPent)][NMeD]-Morpholide; lactam N-11) | 15.2 nM | – | – | NRAS /KRAS [1, 3]: B (a compound having 3 or more and less than 10 is denoted as B); HRAS /KRAS (HRAS wild-type protein; [4]): C (A compound having a KD ratio of 0.1 or more and less than 3 is denoted as C)
CCO[C@@H]1C[C@H]2C(=O)NC3(CCC3)C(=O)N(C)[C@@H](C3CCCC3)C(=O)N(CCC3CCCC3)[C@H](C(=O)N(C)C)CC(=O)N(C)[C@@H](CC)C(=O)N[C@@H]([C@@H](C)CC)C(=O)N(C)CC(=O)N(C)[C@H]3C/C=C\CCN(C3=O)[C@@H](Cc3ccc(C(F)(F)F)cc3)C(=O)N(C)CC(=O)N[C@@H](CCc3cc(F)c(C(F)(F)F)c(F)c3)C(=O)N2C1 [PP0982] | 372 nM | AA (a compound having 20 or more is denoted as AA) | A (a compound having 10 or more and less than 20 is denoted as A) | –

Second part, led by results:

IC50 [2] | Structure (SMILES) | NRAS /KRAS [1, 5] | HRAS /KRAS (HRAS wild-type protein; [6]) | other results
13.2 nM | CCO[C@@H]1C[C@H]2C(=O)NC3(CCC3)C(=O)N(C)[C@@H](C3CCCC3)C(=O)N(C)[C@H](C(=O)N(C)CCOC)CC(=O)N(C)[C@@H](CC)C(=O)N[C@@H]([C@@H](C)CC)C(=O)N(C)CC(=O)N(C)[C@H]3C/C=C\CCN(C3=O)[C@@H](Cc3ccc(C(F)(F)F)cc3)C(=O)N(C)CC(=O)N[C@@H](CCc3cc(F)c(C(F)(F)F)c(F)c3)C(=O)N2C1 [PP1316] | – | – | NRAS /KRAS ([1]; ratio of KD with respect to GDP-bound NRAS wild-type protein to KD with respect to KRAS): A (a compound having 10 or more and less than 20 is denoted as A); HRAS /KRAS (HRAS wild-type protein; ratio of KD with respect to HRAS wild-type protein to KD with respect to KRAS): A (a compound having 10 or more and less than 20 is denoted as A)
62.1 nM | CCO[C@@H]1C[C@H]2C(=O)NC3(CC(C)(C)C3)C(=O)N(C)[C@@H](C(CC)CC)C(=O)N(C)[C@H](C(=O)N3CCCC3)CC(=O)N(C)[C@@H](C)C(=O)N[C@@H]([C@@H](C)CC)C(=O)N(C)CC(=O)N(C)[C@H]3C/C=C\CCN(C3=O)[C@@H](Cc3ccc(C)cc3)C(=O)N(C)CC(=O)N[C@@H](CCc3ccc(C(F)(F)F)c(OC)c3)C(=O)N2C1 [PP2169] | – | – | NRAS /KRAS [1, 3]: AA (a compound having 20 or more is denoted as AA); HRAS /KRAS (HRAS wild-type protein; [4]): A (a compound having 10 or more and less than 20 is denoted as A)
6 nM | CCC[C@H]1C(=O)N[C@@H]([C@@H](C)CC)C(=O)N(C)CC(=O)N(C)[C@H]2C/C=C\CCN(C2=O)[C@@H](Cc2ccc(C(F)(F)F)cc2)C(=O)N(C)CC(=O)N[C@@H](CCc2cc(F)c(Cl)c(F)c2)C(=O)N2C[C@H](OCC)C[C@H]2C(=O)NC2(CC(C)(C)C2)C(=O)N(C)[C@@H](C2CCCC2)C(=O)N(C)[C@H](C(=O)N(C)C)CC(=O)N1C [PP1758] | – | – | NRAS /KRAS [1, 7]: AA (a compound having 20 or more is denoted as AA); HRAS /KRAS (HRAS wild-type protein; [8]): A (a compound having 10 or more and less than 20 is denoted as A)
24.2 nM | CCC[C@H]1C(=O)N[C@@H]([C@@H](C)CC)C(=O)N(C)CC(=O)N(C)[C@H]2C/C=C\CCN(C2=O)[C@@H](Cc2ccc(C(F)(F)F)cc2)C(=O)N(C)CC(=O)N[C@@H](CCc2cc(Cl)c3c(ccn3C)c2)C(=O)N2C[C@H](OCC)C[C@H]2C(=O)NC2(CC(C)(C)C2)C(=O)N(C)[C@@H](C2CCCC2)C(=O)N(C)[C@H](C(=O)N(C)C)CC(=O)N1C [PP2950] | A (a compound having 10 or more and less than 20 is denoted as A) | A (a compound having 10 or more and less than 20 is denoted as A) | –
7.2 nM | CCC[C@H]1C(=O)N[C@@H]([C@@H](C)CC)C(=O)N(C)CC(=O)N(C)[C@H]2C/C=C\CCN(C2=O)[C@@H](Cc2ccc(C(F)(F)F)cc2)C(=O)N(C)CC(=O)N[C@@H](CCc2ccc(Cl)c(C(F)(F)F)c2)C(=O)N2C[C@H](OCC)C[C@H]2C(=O)NC2(CC(C)(C)C2)C(=O)N(C)[C@@H](C2CCCC2)C(=O)N(C)[C@H](C(=O)N(C)C)CC(=O)N1C [PP2784] | A (a compound having 10 or more and less than 20 is denoted as A) | A (a compound having 10 or more and less than 20 is denoted as A) | –
144 nM | CCO[C@@H]1C[C@H]2C(=O)NC3(CC(C)(C)C3)C(=O)N(C)[C@@H](C(CC)CC)C(=O)N(C)C(C(C)C)CC(=O)N(C)[C@@H](CC3CC3)C(=O)N[C@@H]([C@@H](C)CC)C(=O)N(C)CC(=O)N(C)[C@H]3C/C=C\CCN(C3=O)[C@@H](Cc3ccc(C(F)(F)F)cc3)C(=O)N(C)CC(=O)N[C@@H](CCc3cc(F)c(C(F)(F)F)c(F)c3)C(=O)N2C1 (stereo partly drawn) [PP1593] | – | – | NRAS /KRAS [1, 7]: A (a compound having 10 or more and less than 20 is denoted as A); HRAS /KRAS (HRAS wild-type protein; [8]): A (a compound having 10 or more and less than 20 is denoted as A)
12.2 nM | CCC[C@@H]1C[C@H]2C(=O)NC3(CC(C)(C)C3)C(=O)N(C)[C@@H](C3CCCC3)C(=O)N(C)[C@H](C(=O)N(C)C)CC(=O)N(C)[C@@H](COC)C(=O)N[C@@H]([C@@H](C)CC)C(=O)N(C)CC(=O)N(C)[C@H]3C/C=C\CCN(C3=O)[C@@H](Cc3ccc(C(F)(F)F)cc3)C(=O)N(C)CC(=O)N[C@@H](CCc3ccc(C(F)(F)F)c(Cl)c3)C(=O)N2C1 [PP2275] | – | – | NRAS /KRAS [1, 3]: A (a compound having 10 or more and less than 20 is denoted as A); HRAS /KRAS (HRAS wild-type protein; [4]): A (a compound having 10 or more and less than 20 is denoted as A)
